Assay [1] deals with Voltage-dependent T-type calcium channel subunit alpha-1H (Homo sapiens, UniProt O95180). It is filed as functional.
Assay [2] addresses T1, Cytochrome P450 3A4 (Homo sapiens, UniProt P08684). To be noted: Potency.
Assay [3] in a line: cytotoxicity in HEK-293T cells, dose response, cytotoxicity control for BCR NF-kB inhibitor project, luminescence, B-cell screen hits (AID 489021).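 Note: HEK-293T cells carrying an NF-kB luciferase reporter; cells exposed to compound for about 14 hours before viability readout.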 It is filed as functional, cell-based.
The subject of the next assay is INS1. As to the kind of experiment: beta cell apoptosis inhibitors, cytokine rescue, dose response, luminescence, retest (AID 449756).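 Note: cell death triggered by IL-1 beta plus TNF-alpha plus IFN-gamma mixture; protective hits raise ATP signal compared with cytokine alone wells.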 To be noted: Rattus norvegicus. It is filed as functional, cell-based.
Assay [4] can be described thus: cells. It is filed as functional, cell-based.
Assay [5] in a line: cells. It is filed as functional, cell-based. This is another data set of the same source.
Assay [6] deals with T2, Calpain-2 catalytic subunit (Sus scrofa, UniProt P43367).
T2 sequence (P43367 whole entry): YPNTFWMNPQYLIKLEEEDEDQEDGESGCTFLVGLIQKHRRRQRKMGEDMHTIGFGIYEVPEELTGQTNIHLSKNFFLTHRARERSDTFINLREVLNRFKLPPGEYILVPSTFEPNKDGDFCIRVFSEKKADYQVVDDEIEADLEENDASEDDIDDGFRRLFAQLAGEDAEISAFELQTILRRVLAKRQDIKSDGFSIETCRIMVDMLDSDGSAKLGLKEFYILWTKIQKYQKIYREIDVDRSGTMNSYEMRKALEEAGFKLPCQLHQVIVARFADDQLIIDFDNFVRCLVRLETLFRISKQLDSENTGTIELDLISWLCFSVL
As to the kind of experiment: pig calpain II inhibitor potency, dose response, biochemical, fluorogenic peptide substrate (AID 1420). It is filed as functional.

A short description of assay [7]: NIH-3T3 fibroblast cytotoxicity, dose response, cytotoxicity control, cell-based, fluorescence, Alamar Blue, secondary assay (AID 2327).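 Note: NIH-3T3 mouse fibroblasts cultured with fluconazole at 8 µg/mL.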 It is filed as functional.
A further assay addresses T3, Aminopeptidase N (Plasmodium falciparum FcB1/Columbia, UniProt O96935).
T3 sequence (O96935 whole entry): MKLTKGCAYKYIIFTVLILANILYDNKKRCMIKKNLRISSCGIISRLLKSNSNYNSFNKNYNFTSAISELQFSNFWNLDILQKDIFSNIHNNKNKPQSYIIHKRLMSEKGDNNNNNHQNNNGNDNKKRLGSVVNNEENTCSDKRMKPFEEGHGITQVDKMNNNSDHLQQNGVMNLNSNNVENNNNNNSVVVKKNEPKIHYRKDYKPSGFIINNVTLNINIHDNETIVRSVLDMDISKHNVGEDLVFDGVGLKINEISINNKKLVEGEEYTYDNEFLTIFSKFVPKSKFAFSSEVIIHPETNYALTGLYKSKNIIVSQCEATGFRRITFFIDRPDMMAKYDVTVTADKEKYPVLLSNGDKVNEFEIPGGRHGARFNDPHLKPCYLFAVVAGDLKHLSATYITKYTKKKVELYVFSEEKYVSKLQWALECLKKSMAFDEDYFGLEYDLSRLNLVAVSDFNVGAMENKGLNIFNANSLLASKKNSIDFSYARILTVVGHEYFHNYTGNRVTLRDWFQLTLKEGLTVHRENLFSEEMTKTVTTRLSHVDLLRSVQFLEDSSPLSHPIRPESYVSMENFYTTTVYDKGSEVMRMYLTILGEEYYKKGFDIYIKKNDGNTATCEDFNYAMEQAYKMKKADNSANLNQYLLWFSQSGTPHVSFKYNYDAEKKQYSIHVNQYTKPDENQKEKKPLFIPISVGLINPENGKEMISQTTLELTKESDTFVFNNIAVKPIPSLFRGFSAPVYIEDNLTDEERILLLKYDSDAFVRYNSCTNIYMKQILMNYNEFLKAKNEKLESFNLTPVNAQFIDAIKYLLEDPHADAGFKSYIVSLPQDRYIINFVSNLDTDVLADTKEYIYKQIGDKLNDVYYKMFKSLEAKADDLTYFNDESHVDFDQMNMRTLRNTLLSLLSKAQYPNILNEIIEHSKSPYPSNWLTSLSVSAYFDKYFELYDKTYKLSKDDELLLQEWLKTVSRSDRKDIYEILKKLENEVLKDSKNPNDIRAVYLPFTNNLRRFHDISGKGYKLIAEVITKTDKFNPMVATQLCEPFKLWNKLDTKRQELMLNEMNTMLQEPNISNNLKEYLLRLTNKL
As to the kind of experiment: P. falciparum M1AAP inhibitors, biochemical, fluorogenic H-Leu-NHMec substrate, 1536-well (AID 1445). On the set-up: species or system Plasmodium falciparum 3D7, 3D7.

Assay [8] can be described thus: C. albicans growth with fluconazole, confirmation, fluorescence, retest (AID 2467). It is filed as functional, cell-based.
The next assay addresses T4, Leucine aminopeptidase (Plasmodium falciparum 3D7, UniProt Q8IL11).
T4 sequence (Q8IL11 whole entry): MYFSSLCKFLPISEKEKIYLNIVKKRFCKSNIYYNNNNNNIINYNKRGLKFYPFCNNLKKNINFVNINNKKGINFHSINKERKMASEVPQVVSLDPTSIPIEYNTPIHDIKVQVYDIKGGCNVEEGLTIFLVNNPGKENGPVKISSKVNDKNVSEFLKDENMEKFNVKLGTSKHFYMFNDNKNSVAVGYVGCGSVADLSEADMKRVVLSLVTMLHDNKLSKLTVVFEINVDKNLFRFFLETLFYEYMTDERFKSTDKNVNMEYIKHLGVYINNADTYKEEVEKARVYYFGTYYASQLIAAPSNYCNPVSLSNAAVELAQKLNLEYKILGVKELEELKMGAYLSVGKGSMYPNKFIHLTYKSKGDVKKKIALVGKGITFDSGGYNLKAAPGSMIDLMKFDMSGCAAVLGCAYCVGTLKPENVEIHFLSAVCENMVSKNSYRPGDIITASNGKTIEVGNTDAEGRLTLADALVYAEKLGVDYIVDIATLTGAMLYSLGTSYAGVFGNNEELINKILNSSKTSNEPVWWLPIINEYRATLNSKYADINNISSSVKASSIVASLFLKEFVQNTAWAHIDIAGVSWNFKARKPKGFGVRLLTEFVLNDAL
As to the kind of experiment: P. falciparum M17LAP inhibitors, primary screen, biochemical, fluorogenic H-Leu-NHMec substrate, 1536-well (AID 1619). It is filed as functional.

Assay [9] deals with T1, Cytochrome P450 3A4.
Assay [10] addresses Induced myeloid leukemia cell differentiation protein Mcl-1 (Homo sapiens, UniProt Q07820). The assay is classed as functional.
For assay [11], the target named is T5, Carboxy-terminal domain RNA polymerase II polypeptide A small phosphatase 1 (Homo sapiens, UniProt Q9GZU7).
T5 sequence (Q9GZU7 whole entry): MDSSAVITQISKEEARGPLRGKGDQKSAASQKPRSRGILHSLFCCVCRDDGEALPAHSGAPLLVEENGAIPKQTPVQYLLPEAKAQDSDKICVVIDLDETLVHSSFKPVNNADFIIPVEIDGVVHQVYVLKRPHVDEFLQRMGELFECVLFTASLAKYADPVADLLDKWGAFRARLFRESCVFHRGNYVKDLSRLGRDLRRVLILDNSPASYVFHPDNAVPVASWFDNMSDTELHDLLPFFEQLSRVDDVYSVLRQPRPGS
As to the kind of experiment: inhibitors of CTDSP1, concentration-response testing, biochemical assay, absorbance-based, actives from ultra-high-throughput screening (AID 540297). It is filed as functional.

Activity calls are given as the source filed them.

T1 sequence (P08684 whole entry): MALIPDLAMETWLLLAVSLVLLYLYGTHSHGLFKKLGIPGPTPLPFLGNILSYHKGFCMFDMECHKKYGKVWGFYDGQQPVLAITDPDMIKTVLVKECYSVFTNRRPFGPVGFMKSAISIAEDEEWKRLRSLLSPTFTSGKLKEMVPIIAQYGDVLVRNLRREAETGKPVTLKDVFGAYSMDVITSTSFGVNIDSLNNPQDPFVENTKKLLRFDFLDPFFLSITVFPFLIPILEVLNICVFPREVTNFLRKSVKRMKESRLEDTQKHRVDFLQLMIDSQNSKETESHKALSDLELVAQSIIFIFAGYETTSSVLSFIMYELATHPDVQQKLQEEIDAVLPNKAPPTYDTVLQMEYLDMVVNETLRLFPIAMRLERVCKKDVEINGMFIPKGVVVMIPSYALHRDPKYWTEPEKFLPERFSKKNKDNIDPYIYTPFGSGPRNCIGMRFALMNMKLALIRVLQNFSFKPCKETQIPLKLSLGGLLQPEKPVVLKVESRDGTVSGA
Voltage-dependent T-type calcium channel subunit alpha-1H, sequence (O95180 whole entry): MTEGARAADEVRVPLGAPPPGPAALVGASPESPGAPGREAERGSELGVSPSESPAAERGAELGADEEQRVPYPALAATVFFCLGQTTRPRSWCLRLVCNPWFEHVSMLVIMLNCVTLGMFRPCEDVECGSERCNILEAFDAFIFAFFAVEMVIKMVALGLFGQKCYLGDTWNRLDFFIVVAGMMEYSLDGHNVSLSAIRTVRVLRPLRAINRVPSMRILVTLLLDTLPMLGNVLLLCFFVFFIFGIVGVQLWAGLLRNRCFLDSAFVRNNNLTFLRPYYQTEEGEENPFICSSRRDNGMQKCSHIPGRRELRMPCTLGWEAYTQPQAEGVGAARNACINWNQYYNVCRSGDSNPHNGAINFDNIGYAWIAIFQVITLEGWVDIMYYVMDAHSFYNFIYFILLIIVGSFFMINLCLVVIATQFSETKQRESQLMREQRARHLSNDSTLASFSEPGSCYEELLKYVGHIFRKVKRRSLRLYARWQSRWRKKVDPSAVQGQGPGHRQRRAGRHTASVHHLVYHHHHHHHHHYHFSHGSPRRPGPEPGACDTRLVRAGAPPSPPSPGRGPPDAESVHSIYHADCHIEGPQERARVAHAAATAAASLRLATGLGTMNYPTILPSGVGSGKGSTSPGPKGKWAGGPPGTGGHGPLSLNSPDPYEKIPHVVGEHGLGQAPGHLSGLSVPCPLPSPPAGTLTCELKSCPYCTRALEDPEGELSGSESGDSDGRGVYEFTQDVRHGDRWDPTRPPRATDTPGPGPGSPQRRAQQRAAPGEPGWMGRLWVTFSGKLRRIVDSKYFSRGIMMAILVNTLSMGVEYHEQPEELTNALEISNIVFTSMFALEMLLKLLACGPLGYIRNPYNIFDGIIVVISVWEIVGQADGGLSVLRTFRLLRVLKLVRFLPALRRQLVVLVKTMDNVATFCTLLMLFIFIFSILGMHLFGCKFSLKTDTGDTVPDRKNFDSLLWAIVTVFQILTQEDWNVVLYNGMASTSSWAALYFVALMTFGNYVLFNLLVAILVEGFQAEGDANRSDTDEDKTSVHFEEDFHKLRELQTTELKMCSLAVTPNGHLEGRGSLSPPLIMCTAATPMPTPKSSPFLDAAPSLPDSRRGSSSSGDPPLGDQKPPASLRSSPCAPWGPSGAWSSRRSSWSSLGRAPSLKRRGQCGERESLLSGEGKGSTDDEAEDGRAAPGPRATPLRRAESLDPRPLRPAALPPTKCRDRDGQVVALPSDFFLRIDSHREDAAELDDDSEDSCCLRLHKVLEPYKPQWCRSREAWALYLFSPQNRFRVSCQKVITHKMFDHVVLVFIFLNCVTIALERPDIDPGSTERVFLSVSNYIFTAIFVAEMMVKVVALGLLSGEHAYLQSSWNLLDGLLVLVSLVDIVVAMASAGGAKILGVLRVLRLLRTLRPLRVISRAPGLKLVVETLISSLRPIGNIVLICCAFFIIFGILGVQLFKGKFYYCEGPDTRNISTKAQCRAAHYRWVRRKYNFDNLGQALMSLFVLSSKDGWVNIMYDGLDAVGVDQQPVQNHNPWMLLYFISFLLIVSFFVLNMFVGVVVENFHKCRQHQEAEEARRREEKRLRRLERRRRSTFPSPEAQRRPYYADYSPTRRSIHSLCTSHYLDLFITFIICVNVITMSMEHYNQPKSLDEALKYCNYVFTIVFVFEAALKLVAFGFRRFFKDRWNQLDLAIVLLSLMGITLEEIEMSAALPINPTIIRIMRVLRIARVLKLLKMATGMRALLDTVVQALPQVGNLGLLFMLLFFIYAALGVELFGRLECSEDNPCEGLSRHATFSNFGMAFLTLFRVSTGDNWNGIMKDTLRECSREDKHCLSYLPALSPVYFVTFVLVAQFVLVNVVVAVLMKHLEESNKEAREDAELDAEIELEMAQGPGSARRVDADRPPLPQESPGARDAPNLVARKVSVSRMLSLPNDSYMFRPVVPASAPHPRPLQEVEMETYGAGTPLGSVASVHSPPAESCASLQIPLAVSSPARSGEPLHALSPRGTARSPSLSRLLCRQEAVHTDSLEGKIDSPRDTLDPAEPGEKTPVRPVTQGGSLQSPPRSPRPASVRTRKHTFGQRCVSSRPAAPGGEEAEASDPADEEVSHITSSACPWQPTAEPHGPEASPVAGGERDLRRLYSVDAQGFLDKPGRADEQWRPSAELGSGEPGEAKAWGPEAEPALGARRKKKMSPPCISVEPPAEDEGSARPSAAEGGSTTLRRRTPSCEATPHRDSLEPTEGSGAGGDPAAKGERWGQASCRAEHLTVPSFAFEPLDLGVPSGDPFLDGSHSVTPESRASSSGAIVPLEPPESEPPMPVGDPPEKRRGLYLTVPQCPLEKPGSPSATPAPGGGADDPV
Induced myeloid leukemia cell differentiation protein Mcl-1, sequence (Q07820 whole entry, the tested form may be a part): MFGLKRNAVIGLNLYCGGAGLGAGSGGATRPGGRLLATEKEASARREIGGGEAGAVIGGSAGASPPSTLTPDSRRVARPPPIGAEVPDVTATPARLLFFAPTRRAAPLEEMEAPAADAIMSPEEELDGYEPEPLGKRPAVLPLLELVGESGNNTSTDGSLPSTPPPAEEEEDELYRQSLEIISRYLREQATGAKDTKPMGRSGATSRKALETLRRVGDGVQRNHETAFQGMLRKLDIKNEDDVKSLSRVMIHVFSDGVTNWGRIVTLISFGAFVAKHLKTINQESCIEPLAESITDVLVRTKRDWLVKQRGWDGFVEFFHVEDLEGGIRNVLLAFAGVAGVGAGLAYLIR

On to `Cc1[nH]c2ccccc2c1SCC(=O)N1CCCc2ccccc21`, for which, in assay [1], the EC50 – broadly, the concentration needed to bring the measured effect to its halfway point – is 6.34 µM (active).

As to `CCC1=C(OC(=O)N(CC)CC)N2C(=O)O/C(=N\CCOC)[C@]2(C)[C@H]2C1=CC[C@H]1C(=O)NC(=O)[C@H]12`, on Cytochrome P450 3A4 [2], the AC50 (in general, the concentration at which the activity in the assay is half-maximal) was 10 µM (inconclusive).

On to `CCN1C(=O)c2cccc3c(S(=O)(=O)Nc4ccccc4)ccc1c23`, for which the IC50 (in general, the concentration that gives 50% inhibition) in assay [3] was > 80 µM (inactive).

As for `Cc1ccc(N(C(=O)Cc2c[nH]c3ccccc23)C(C(=O)NC2CCCCC2)c2ccco2)cc1` (stereo not given), in assay [1], the EC50 is 10.2 µM (active).

`Cc1ccc(NC(=O)c2c(-c3c(F)cccc3Cl)noc2C)cc1F`: the EC50 in [1] is 5.69 µM (active). Further, the AC50 in the assay on INS1 is > 260 µM (inactive).

For the compound `C=CCNC(=O)c1cc([N+](=O)[O-])cc2c(=O)[nH]c(Nc3ccc(Cl)c(Cl)c3)nc12`, the AC50 on Cytochrome P450 3A4 [2] is 10 µM (inconclusive).

As for `CC(C)C(c1nnnn1Cc1ccccc1)N(Cc1ccco1)Cc1cccs1` (stereo not given), the IC50 in [3] is > 80 µM (inactive).

Take `CCC(=O)N1c2ccccc2C(N(C(C)=O)c2ccccc2)CC1C` (stereo not given): the EC50 in “cells [4]” and in “cells [5]” was > 350 µM (not active) each time. Moreover, in assay [3], the IC50 was > 80 µM (inactive).

For the compound `CCCC(=O)Nc1ccc(Sc2ccc([N+](=O)[O-])cc2)cc1`, the IC50 in assay [6] was 10.7 µM (not active); in assay [3], 77.8 µM (inactive).

Take `Nc1nonc1C(=O)N/N=C/c1cc(Br)ccc1O`: the EC50 was > 160 µM (inactive) in [7], 108 µM (active) in the assay “cells [4]”, 0.782 µM (active) in [8] and > 350 µM (not active) in the assay “cells [5]”. For the same compound, the IC50 at Aminopeptidase N was 3.45 µM (active).

For `O=c1oc2ccccc2n1CSc1nc2ccccc2s1`, in [1], the EC50 is 550 µM (active).

Consider `C=CC(C1=CC(=O)C(OC)=C(OC)C1=O)c1ccccc1` (stereo not given), for which the concentration at half-maximal activity (AC50) at Cytochrome P450 3A4 [2] was 15.8 µM (inconclusive).

Regarding `CCOC(=O)C1=C(Nc2ccc(OC)cc2)S/C(=C\c2ccc(OCC(=O)O)c(OCC)c2)C1=O`, the IC50 at Leucine aminopeptidase is 21.3 µM (active); at Aminopeptidase N, 36.3 µM (active).

For the compound `Clc1ccc2c(c1)C(N1CCNCC1)=Nc1ccccc1O2` [AMOXAPINE], the AC50 on Cytochrome P450 3A4 [2] is 10 µM (inconclusive); on Cytochrome P450 3A4 [9] it was 15.8 µM (inconclusive).

On to `CC(C)C[C@H](NC(=O)c1[nH]cnc1C(=O)NC1CCN(C(=O)OC(C)(C)C)CC1)C(=O)OC(C)(C)C`, for which, on Aminopeptidase N, the IC50 is 63.9 µM (active).

As to `C/C=C/C1Oc2ccc(OC)cc2N2C(=O)C(C)C(OCOC)C12` (stereo not given), the concentration at half-maximal activity (AC50) at Cytochrome P450 3A4 [2] was 3.98 µM (inconclusive).

Turning to `O=C(O)C/C(=C\c1ccc(Cl)cc1)c1nc2ccccc2o1`, the IC50 at Leucine aminopeptidase is 105 µM (active); on Aminopeptidase N, 33.9 µM (active).

On to `CCCn1c(C)nc2c(N(CCN(C)C)Cc3ccccc3)nc(C)nc21`, for which the AC50 on Cytochrome P450 3A4 [2] is 12.6 µM (inconclusive).

Turning to `CC(=O)c1cccc(S(=O)(=O)Nc2cc(C(F)(F)F)ccc2N2CCOCC2)c1`, in assay [3], the IC50 was > 80 µM (inactive).

As for `CCc1nnc(NC(=O)c2cc(-c3ccco3)nc3ccccc23)s1`, the IC50 in [10] was 3.18 µM (active); in [11] it was 4.01 µM (active).

As for `CCOP(=O)(OCC)c1nc(-c2cccc([N+](=O)[O-])c2)oc1N1CCCCC1`, the IC50 on Aminopeptidase N is 50.1 µM (active).

As to `Cn1cccc1Cc1nnc(SCC(=O)Nc2ccccc2)n1-c1ccc(F)cc1`, the EC50 in [1] is 2.44 µM (active).

For `Cc1c(O)c(CN2CCCCC2)cc2c3c(c(=O)oc12)CCC3`, the IC50 on Aminopeptidase N is 37.5 µM (active).

These data come from ChEMBL document CHEMBL1201862, “PubChem BioAssay data set” (2004).
